Type in all cases: cell-based
The target of assay [1] is T1, GLP-1R (Homo sapiens, UniProt P43220). Briefly: HitHunter cAMP assay (GLP-1R). As to conditions: cAMP; for Emax: read-out: (Emax) GLP-1R. A digest of the protocol: (§1)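 cAMP, luminescence read: agonist 22-pt 2× dilution in DMSO, duplicate, 30 min RT on 10,000 cells/well in 1×HBSS/10 mM HEPES/625 μM IBMX/0.2% BSA; anti-cAMP reagent 1 h RT dark, then O/N RT dark before read.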
For orientation: cAMP levels reflect the balance of adenylyl cyclase and phosphodiesterase activity.

In another assay the target is T2, GIP-R (Homo sapiens, UniProt P48546).
T2 sequence (P48546 22-466): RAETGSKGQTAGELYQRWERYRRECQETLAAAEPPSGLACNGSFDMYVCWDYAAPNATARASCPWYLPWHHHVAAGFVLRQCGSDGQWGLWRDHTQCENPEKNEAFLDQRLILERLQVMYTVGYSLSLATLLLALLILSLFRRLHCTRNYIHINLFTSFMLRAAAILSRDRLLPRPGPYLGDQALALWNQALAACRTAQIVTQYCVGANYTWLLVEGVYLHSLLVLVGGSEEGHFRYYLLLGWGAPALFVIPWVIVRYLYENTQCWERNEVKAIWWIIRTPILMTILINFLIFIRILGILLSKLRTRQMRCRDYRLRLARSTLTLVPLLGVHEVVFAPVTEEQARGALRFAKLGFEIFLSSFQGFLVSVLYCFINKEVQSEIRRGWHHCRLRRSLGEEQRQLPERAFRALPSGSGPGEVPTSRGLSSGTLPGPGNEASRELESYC
The assay can be described thus: HitHunter cAMP assay (GIP-R). As to conditions: cAMP; for Emax: read-out: (Emax) GIP-R. A digest of the protocol:
as §1

Assay [2] addresses T1, GLP-1R. The assay can be described thus: PathHunter β-arrestin assay. A digest of the protocol: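 Luminescence read-out of β-arrestin recruitment (enzyme-fragment complementation detection, 3 h at room temperature in the dark) after 90 min agonist stimulation at 37 °C. Agonists tested as 22-point 2× serial dilutions in duplicate, in medium containing 0.2% BSA.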

Like-named read-outs stand apart in the source and are kept apart here.

T1 sequence (P43220 24-463): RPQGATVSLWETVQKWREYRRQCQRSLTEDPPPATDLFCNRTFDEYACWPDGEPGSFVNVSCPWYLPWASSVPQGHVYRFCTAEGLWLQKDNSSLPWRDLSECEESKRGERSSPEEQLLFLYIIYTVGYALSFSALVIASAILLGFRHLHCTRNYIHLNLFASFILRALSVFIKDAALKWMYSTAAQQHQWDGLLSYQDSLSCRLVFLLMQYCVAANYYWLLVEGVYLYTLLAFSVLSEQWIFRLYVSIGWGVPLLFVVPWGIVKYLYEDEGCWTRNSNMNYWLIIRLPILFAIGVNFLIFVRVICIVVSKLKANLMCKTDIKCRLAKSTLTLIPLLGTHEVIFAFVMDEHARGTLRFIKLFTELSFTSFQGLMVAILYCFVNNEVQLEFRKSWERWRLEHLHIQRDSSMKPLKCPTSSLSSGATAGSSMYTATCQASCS

In the case of `CC[C@H](C)[C@H](NC(=O)[C@H](CO)NC(=O)[C@H](Cc1ccc(O)cc1)NC(=O)[C@H](CC(=O)O)NC(=O)[C@H](CO)NC(=O)[C@@H](NC(=O)[C@H](Cc1ccccc1)NC(=O)[C@@H](NC(=O)CNC(=O)[C@H](CCC(=O)O)NC(=O)CSCC(=O)NCCN1C(=O)[C@H]2CCCC[C@H]2C1=O)[C@@H](C)O)[C@@H](C)O)C(=O)N[C@@H](Cc1ccc(O)cc1)C(=O)N[C@@H](CC(C)C)C(=O)N[C@@H](CC(=O)O)C(=O)N[C@@H](CCCCN)C(=O)N[C@@H](CCC(N)=O)C(=O)N[C@@H](C)C(=O)N[C@@H](C)C(=O)NC(C)(C)C(=O)N[C@@H](CCC(=O)O)C(=O)N[C@@H](Cc1ccccc1)C(=O)N[C@H](C(=O)N[C@@H](CC(N)=O)C(=O)N[C@@H](Cc1c[nH]c2ccccc12)C(=O)N[C@@H](CC(C)C)C(=O)N[C@@H](CC(C)C)C(=O)N[C@@H](C)C(=O)NCC(=O)NCC(=O)N1CCC[C@H]1C(=O)N[C@@H](CO)C(=O)N[C@@H](CO)C(=O)NCC(=O)N[C@@H](C)C(=O)N1CCC[C@H]1C(=O)N1CCC[C@H]1C(=O)N1CCC[C@H]1C(=O)N[C@@H](CO)C(=O)N[C@@H](CCCCN)C(N)=O)C(C)C` [Compound 159], the EC50 at GLP-1R [1] (EC50 GLP-1R/nM, Table 3) is 10 to 100 nM; at GLP-1R [1] (EC50 GLP-1R/nM, Table 3A), 10 to 100 nM; on GIP-R (EC50 GIP-R/nM, Table 3), 1 to 10 nM; on GIP-R (EC50 GIP-R/nM, Table 3A), 1 to 10 nM; at GLP-1R [2], more than 1000 nM. Besides, the Emax at GLP-1R [1] (Table 3) was 87 to 91%; on GLP-1R [1] (Table 3A), 87 to 91%; at GIP-R (Table 3) it was 89 to 92%; at GIP-R (Table 3A), 89 to 92%.
For the compound `CC[C@H](C)[C@H](NC(=O)[C@H](CO)NC(=O)[C@H](Cc1ccc(O)cc1)NC(=O)[C@H](CC(=O)O)NC(=O)[C@H](CO)NC(=O)[C@@H](NC(=O)[C@H](Cc1ccccc1)NC(=O)[C@@H](NC(=O)CNC(=O)[C@H](CCC(=O)O)NC(=O)CCNC(=O)CCCN1C(=O)CSC1=O)[C@@H](C)O)[C@@H](C)O)C(=O)N[C@@H](Cc1ccc(O)cc1)C(=O)N[C@@H](CC(C)C)C(=O)N[C@@H](CC(=O)O)C(=O)N[C@@H](CCCCN)C(=O)N[C@@H](CCC(N)=O)C(=O)N[C@@H](C)C(=O)N[C@@H](C)C(=O)NC(C)(C)C(=O)N[C@@H](CCC(=O)O)C(=O)N[C@@H](Cc1ccccc1)C(=O)N[C@H](C(=O)N[C@@H](CC(N)=O)C(=O)N[C@@H](Cc1c[nH]c2ccccc12)C(=O)N[C@@H](CC(C)C)C(=O)N[C@@H](CC(C)C)C(=O)N[C@@H](C)C(=O)NCC(=O)NCC(=O)N1CCC[C@H]1C(=O)N[C@@H](CO)C(=O)N[C@@H](CO)C(=O)NCC(=O)N[C@@H](C)C(=O)N1CCC[C@H]1C(=O)N1CCC[C@H]1C(=O)N1CCC[C@H]1C(=O)N[C@@H](CO)C(=O)N[C@@H](CCCCN)C(N)=O)C(C)C` [Compound 172], the EC50 at GLP-1R [1] (EC50 GLP-1R/nM, Table 3) is 1 to 10 nM; at GLP-1R [1] (EC50 GLP-1R/nM, Table 3A) it was 1 to 10 nM; at GIP-R (EC50 GIP-R/nM, Table 3), 10 to 100 nM; at GIP-R (EC50 GIP-R/nM, Table 3A), 10 to 100 nM; on GLP-1R [2] it was more than 1000 nM. The Emax on GLP-1R [1] (Table 3) was in the range of 98 to 101%; on GLP-1R [1] (Table 3A), 98 to 101%; on GIP-R (Table 3) it was 63 to 71%; at GIP-R (Table 3A), 63 to 71%.
In the case of `CCCCCCCCCCCCCCCC(=O)N[C@@H](CCC(=O)NCCCC[C@H](NC(=O)[C@H](CO)NC(=O)[C@@H]1CCCN1C(=O)[C@@H]1CCCN1C(=O)[C@@H]1CCCN1C(=O)[C@H](C)NC(=O)CNC(=O)[C@H](CO)NC(=O)[C@H](CO)NC(=O)[C@@H]1CCCN1C(=O)CNC(=O)CNC(=O)[C@H](C)NC(=O)[C@H](CC(C)C)NC(=O)[C@H](CC(C)C)NC(=O)[C@H](Cc1c[nH]c2ccccc12)NC(=O)[C@H](CC(N)=O)NC(=O)[C@@H](NC(=O)[C@H](Cc1ccccc1)NC(=O)[C@H](CCC(=O)O)NC(=O)C(C)(C)NC(=O)[C@H](C)NC(=O)[C@H](C)NC(=O)[C@H](CCC(N)=O)NC(=O)[C@H](CCCCN)NC(=O)[C@H](CC(=O)O)NC(=O)[C@H](CC(C)C)NC(=O)[C@H](Cc1ccc(O)cc1)NC(=O)[C@@H](NC(=O)[C@H](CO)NC(=O)[C@H](Cc1ccc(O)cc1)NC(=O)[C@H](CC(=O)O)NC(=O)[C@H](CO)NC(=O)[C@@H](NC(=O)[C@H](Cc1ccccc1)NC(=O)[C@@H](NC(=O)CNC(=O)[C@H](CCC(=O)O)NC(=O)CSCC(=O)NCCN1C(=O)CC(C)(C)C1=O)[C@@H](C)O)[C@@H](C)O)[C@@H](C)CC)C(C)C)C(N)=O)C(=O)O` [Compound 104], the EC50 is 1 to 10 nM at GLP-1R [1] (EC50 GLP-1R/nM, Table 3); 1 to 10 nM on GLP-1R [1] (EC50 GLP-1R/nM, Table 3A); 1 to 10 nM on GIP-R (EC50 GIP-R/nM, Table 3); 1 to 10 nM at GIP-R (EC50 GIP-R/nM, Table 3A); more than 1000 nM on GLP-1R [2]. Further, the maximal effect (Emax) at GLP-1R [1] (Table 3) was in the range of 104 to 106%; at GLP-1R [1] (Table 3A), 104 to 106%; at GIP-R (Table 3), 43 to 47%; at GIP-R (Table 3A), 43 to 47%.
Take `CC[C@H](C)[C@H](NC(=O)[C@H](CO)NC(=O)[C@H](Cc1ccc(O)cc1)NC(=O)[C@H](CC(=O)O)NC(=O)[C@H](CO)NC(=O)[C@@H](NC(=O)[C@H](Cc1ccccc1)NC(=O)[C@@H](NC(=O)CNC(=O)[C@H](CCC(=O)O)NC(=O)CSCC(=O)NCCn1c(C)cc(C)nc1=O)[C@@H](C)O)[C@@H](C)O)C(=O)N[C@@H](Cc1ccc(O)cc1)C(=O)N[C@@H](CC(C)C)C(=O)N[C@@H](CC(=O)O)C(=O)N[C@@H](CCCCN)C(=O)N[C@@H](CCC(N)=O)C(=O)N[C@@H](C)C(=O)N[C@@H](C)C(=O)NC(C)(C)C(=O)N[C@@H](CCC(=O)O)C(=O)N[C@@H](Cc1ccccc1)C(=O)N[C@H](C(=O)N[C@@H](CC(N)=O)C(=O)N[C@@H](Cc1c[nH]c2ccccc12)C(=O)N[C@@H](CC(C)C)C(=O)N[C@@H](CC(C)C)C(=O)N[C@@H](C)C(=O)NCC(=O)NCC(=O)N1CCC[C@H]1C(=O)N[C@@H](CO)C(=O)N[C@@H](CO)C(=O)NCC(=O)N[C@@H](C)C(=O)N1CCC[C@H]1C(=O)N1CCC[C@H]1C(=O)N1CCC[C@H]1C(=O)N[C@@H](CO)C(=O)N[C@@H](CCCCN)C(N)=O)C(C)C` [Compound 137]: the EC50 was 1 to 10 nM on GLP-1R [1] (EC50 GLP-1R/nM, Table 3); 1 to 10 nM at GLP-1R [1] (EC50 GLP-1R/nM, Table 3A); 10 to 100 nM at GIP-R (EC50 GIP-R/nM, Table 3); more than 1000 nM at GLP-1R [2]. In addition, the Emax was 103% on GLP-1R [1] (Table 3), 103% at GLP-1R [1] (Table 3A) and 8% on GIP-R (Table 3).
Turning to `CC[C@H](C)[C@H](NC(=O)[C@H](CO)NC(=O)[C@H](Cc1ccc(O)cc1)NC(=O)[C@H](CC(=O)O)NC(=O)[C@H](CO)NC(=O)[C@@H](NC(=O)[C@H](Cc1ccccc1)NC(=O)[C@@H](NC(=O)CNC(=O)[C@H](CCC(=O)O)NC(=O)C1(C(=O)NCCN2C(=O)CSC2=O)CCCCC1)[C@@H](C)O)[C@@H](C)O)C(=O)N[C@@H](Cc1ccc(O)cc1)C(=O)N[C@@H](CC(C)C)C(=O)N[C@@H](CC(=O)O)C(=O)N[C@@H](CCCCN)C(=O)N[C@@H](CCC(N)=O)C(=O)N[C@@H](C)C(=O)N[C@@H](C)C(=O)NC(C)(C)C(=O)N[C@@H](CCC(=O)O)C(=O)N[C@@H](Cc1ccccc1)C(=O)N[C@H](C(=O)N[C@@H](CC(N)=O)C(=O)N[C@@H](Cc1c[nH]c2ccccc12)C(=O)N[C@@H](CC(C)C)C(=O)N[C@@H](CC(C)C)C(=O)N[C@@H](C)C(=O)NCC(=O)NCC(=O)N1CCC[C@H]1C(=O)N[C@@H](CO)C(=O)N[C@@H](CO)C(=O)NCC(=O)N[C@@H](C)C(=O)N1CCC[C@H]1C(=O)N1CCC[C@H]1C(=O)N1CCC[C@H]1C(=O)N[C@@H](CO)C(=O)N[C@@H](CCCCN)C(N)=O)C(C)C` [Compound 119], the maximum response (Emax) at GLP-1R [1] (Table 3) worked out at 97%; on GLP-1R [1] (Table 3A), 97%; at GIP-R (Table 3), 41%; on GIP-R (Table 3A), 41%. Besides, the EC50 on GLP-1R [1] (Table 3, read-out: EC50 GLP-1R/nM) was less than 0.1 nM; on GLP-1R [1] (Table 3A, read-out: EC50 GLP-1R/nM), less than 0.1 nM; at GIP-R (Table 3, read-out: EC50 GIP-R/nM), 1 to 10 nM; on GIP-R (Table 3A, read-out: EC50 GIP-R/nM), 10 to 100 nM; on GLP-1R [2] (PathHunter β-arrestin assay, read-out: β-arrestin activity EC50) it was less than 10 nM.

What is called Emax is the maximal effect, on the per cent scale that the assay sets.

Values taken from patent US20260176320A1, “MODULATORS OF G-PROTEIN COUPLED RECEPTORS” (priority 2018, published 2026).
